One experiment addresses T1, CYP4A (Homo sapiens, UniProt Q02928).
T1 construct: purchased; host or cells: bacterial membranes ('bactosome')
T1 sequence (Q02928 5-519): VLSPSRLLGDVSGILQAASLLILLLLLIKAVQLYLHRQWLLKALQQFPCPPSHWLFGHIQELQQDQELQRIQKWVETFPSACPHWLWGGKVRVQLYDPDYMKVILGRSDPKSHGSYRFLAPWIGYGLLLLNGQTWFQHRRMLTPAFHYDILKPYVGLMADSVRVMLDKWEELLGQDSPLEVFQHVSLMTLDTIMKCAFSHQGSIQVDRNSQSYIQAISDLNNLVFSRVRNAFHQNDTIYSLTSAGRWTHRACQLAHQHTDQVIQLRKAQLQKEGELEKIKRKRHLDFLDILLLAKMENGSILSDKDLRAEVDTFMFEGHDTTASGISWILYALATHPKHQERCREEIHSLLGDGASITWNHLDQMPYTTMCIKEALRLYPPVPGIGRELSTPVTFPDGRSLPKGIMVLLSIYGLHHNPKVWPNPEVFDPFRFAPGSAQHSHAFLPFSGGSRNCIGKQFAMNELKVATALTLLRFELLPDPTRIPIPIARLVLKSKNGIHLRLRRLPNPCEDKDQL
The experiment in a line: CYP4A enzyme assay (luminescence, Luciferin-ME). Type of experiment: biochemical. Conditions: Compound concentration 5 μM; 50%-70%; read-out: % Inhibition 50%-70%. The procedure, abridged: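 Compounds (5 μM) were preincubated 15 min at room temperature with CYP4A bactosomes in 100 mM KPO4, 0.1% BSA, 1 mM DTT. Reaction ran 30 min at room temperature after adding 5 mM Luciferin-ME and NADPH regeneration system. Luminescence after 15 min with detection reagent; inhibition judged by comparing well signals.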
For the molecule `O=C(c1ccc(F)cc1)N1CCCC(C(=O)N2CCN(c3cc(C(F)(F)F)nc4ccccc34)CC2)C1` (stereo not drawn) [Example 96, (1-(4-fluorobenzoyl)piperidin-3-yl)(4-(2-(trifluoromethyl)quinolin-4-yl)piperazin-1-yl)methanone], the inhibition at 5 µM is 50 to 70%.

In the case of `COc1ccc(C(=O)N2CCCC(C(=O)N3CCN(c4cc(C(F)(F)F)nc5ccccc45)CC3)C2)cc1` (stereo not drawn) [Example 99, (1-(4-methoxybenzoyl)piperidin-3-yl)(4-(2-(trifluoromethyl)quinolin-4-yl)piperazin-1-yl)methanone], the inhibition at 5 µM was 50 to 70%.

For the molecule `O=C(C1CCCN(C(=O)C2CCCCC2)C1)N1CCN(c2ccnc3cc(Cl)ccc23)CC1` (stereo not drawn) [Example 86, (4-(7-chloroquinolin-4-yl)piperazin-1-yl)(1-(cyclohexylcarbonyl)piperidin-3-yl)methanone], the inhibition at 5 µM was 50 to 70%.

The experiment is the same for the next values; noted with them: Compound concentration 5 μM; 70%-90%; read-out: % Inhibition 70%-90%.
Turning to `O=C(c1ccccc1)N1CCCC(C(=O)N2CCN(c3ccnc4cc(F)ccc34)CC2)C1` (stereo not drawn) [Example 107, (1-benzoylpiperidin-3-yl)(4-(7-fluoroquinolin-4-yl)piperazin-1-yl)methanone], the inhibition at 5 µM was 70 to 90%.

`O=C(C1CCN(S(=O)(=O)c2ccc(Br)cc2)CC1)N1CCN(c2ccnc3cc(F)ccc23)CC1` [Example 56, (1-((4-bromophenyl)sulfonyl)piperidin-4-yl)(4-(7-fluoroquinolin-4-yl)piperazin-1-yl)methanone]: the inhibition at 5 µM was 70 to 90%.

For `O=C(C1CCN(S(=O)(=O)c2ccc(C(F)(F)F)cn2)C1)N1CCN(c2ccnc3ccccc23)CC1` (stereo not drawn) [Example 41, (4-(quinolin-4-yl)piperazin-1-yl)(1-((5-(trifluoromethyl)pyridin-2-yl)sulfonyl)pyrrolidin-3-yl)methanone], the inhibition at 5 µM is 70 to 90%.

On to `Cc1ccc2c(N3CCN(C(=O)[C@H]4CCN(S(=O)(=O)c5ncn[nH]5)C4)CC3)ccnc2c1` [Example 163, (S)-(1-((1H-1,2,4-triazol-5-yl)sulfonyl)pyrrolidin-3-yl)(4-(7-methylquinolin-4-yl)piperazin-1-yl)methanone], for which the inhibition at 5 µM lay within 70 to 90%.

Turning to `O=C(C1CCCN(S(=O)(=O)c2ccc(O)cc2)C1)N1CCN(c2ncnc3ccccc23)CC1` (stereo not drawn) [Example 78, (1-((4-hydroxyphenyl)sulfonyl)piperidin-3-yl)(4-(quinazolin-4-yl)piperazin-1-yl)methanone], the inhibition at 5 µM was 70 to 90%.

Consider `O=C(c1ccncc1)N1CCCC(C(=O)N2CCN(c3ccnc4cc(F)ccc34)CC2)C1` (stereo not drawn) [Example 109, (4-(7-fluoroquinolin-4-yl)piperazin-1-yl)(1-isonicotinoylpiperidin-3-yl)methanone], for which the inhibition at 5 µM lay within 70 to 90%.

Staying with this experiment, now noted: Compound concentration 5 μM; Greater than 90%; read-out: % Inhibition Greater than 90%.
For `O=C(C1CCN(S(=O)(=O)c2ccc(-c3cccnc3)cc2)C1)N1CCN(c2ccnc3ccccc23)CC1` (stereo not drawn) [Example 32, (1-((4-(pyridin-3-yl)phenyl)sulfonyl)pyrrolidin-3-yl)(4-(quinolin-4-yl)piperazin-1-yl)methanone], the inhibition at 5 µM is greater than 90%.

Take `O=C(C1CCCN(S(=O)(=O)c2ccc(N3CCOCC3)nc2)C1)N1CCN(c2ccnc3cc(F)ccc23)CC1` (stereo not drawn) [Example 61, (4-(7-fluoroquinolin-4-yl)piperazin-1-yl)(1-((6-morpholinopyridin-3-yl)sulfonyl)piperidin-3-yl)methanone]: the inhibition at 5 µM is greater than 90%.

As for `O=C(C1CCN(S(=O)(=O)c2ncc[nH]2)C1)N1CCN(c2ccnc3cc(F)ccc23)CC1` (stereo not drawn) [Example 13, (1-((1H-imidazol-2-yl)sulfonyl)pyrrolidin-3-yl)(4-(7-fluoroquinolin-4-yl)piperazin-1-yl)methanone], the inhibition at 5 µM was greater than 90%.

`CC(=O)Nc1ccc(S(=O)(=O)N2CC[C@@H](C(=O)N3CCN(c4ccnc5ccccc45)CC3)C2)cc1` [Example 22, (R)—N-(4-((3-(4-(quinolin-4-yl)piperazine-1-carbonyl)pyrrolidin-1-yl)sulfonyl)phenyl)acetamide]: the inhibition at 5 µM is greater than 90%.

As to `O=C([C@@H]1CCN(S(=O)(=O)c2ccc(-c3ccncc3)cc2)C1)N1CCN(c2ccnc3cc(F)ccc23)CC1` [Example 18, (R)-(4-(7-fluoroquinolin-4-yl)piperazin-1-yl)(1-((4-(pyridin-4-yl)phenyl)sulfonyl)pyrrolidin-3-yl)methanone], the inhibition at 5 µM is greater than 90%.

As to `CC(=O)Nc1ccc(C(=O)N2CCCC(C(=O)N3CCN(c4ccnc5cc(Cl)ccc45)CC3)C2)cc1` (stereo not drawn) [Example 83, N-(4-(3-(1-(7-chloroquinolin-4-yl)piperazine-4-carbonyl)piperidine-1-carbonyl)phenyl)acetamide], the inhibition at 5 µM is greater than 90%.

Take `CC(=O)Nc1ccc(S(=O)(=O)N2CC(C(=O)N3CCN(c4ccnc5cc(F)ccc45)CC3)C2)cc1` [Example 65, N-(4-((3-(4-(7-fluoroquinolin-4-yl)piperazine-1-carbonyl)azetidin-1-yl)sulfonyl)phenyl)acetamide]: the inhibition at 5 µM is greater than 90%.

Regarding `O=C(C1CCN(S(=O)(=O)c2ccc(-c3ccncc3)cc2)CC1)N1CCN(c2ccnc3ccccc23)CC1` [Example 64, (1-((4-(pyridin-4-yl)phenyl)sulfonyl)piperidin-4-yl)(4-(quinolin-4-yl)piperazin-1-yl)methanone], the inhibition at 5 µM was greater than 90%.

The same experiment, now with this note: Compound concentration 5 μM; Less than 50%; read-out: % Inhibition Less than 50%.
With `Cc1cc(N2CCN(C(=O)C3CCCN(C(=O)C4CCCCC4)C3)CC2)c2ccccc2n1` (stereo not drawn) [Example 103, (1-(cyclohexylcarbonyl)piperidin-3-yl)(4-(2-methylquinolin-4-yl)piperazin-1-yl)methanone], the inhibition at 5 µM was less than 50%.

By inhibition is commonly meant the share of the control response that was lost under treatment.

For the origin of these results see patent US12612384B2, “Heterocyclic CYP4A inhibitor compounds and compositions thereof” (MBD CO., LTD., priority 2021, dated 2026).
